Data on 20 compounds can be found in patent US20250059172A1, “INDAZOLE COMPOUND AND PHARMACEUTICAL” (NIPPON SHINYAKU CO., LTD., priority 2021, published 2025).

One test addresses human mPGES-1 (Homo sapiens (Human), UniProt O14684). The test can be described thus: mPGES-1 inhibitory activity test. It counts as biochemical. Conditions: for IC50: microsomes of CHO-K1 cells expressing human mPGES-1, PGH2 1 μM, PGE2 by HTRF, read-out: mPGES-1 inhibition (IC50 nM); for inhibition at 0.01 µM: 10 nM test compound; for inhibition at 0.1 µM: 100 nM test compound. The essentials: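 PGE2 formation was quantified by HTRF and reported as percent inhibition at 10 and 100 nM compound or as IC50. The 60-second reaction at 4° C used 1 μM PGH2, after a 20-minute 4° C preincubation of compound (1% DMSO final) with glutathione-supplemented (2.5 mM, pH 7.4) microsomes. The microsomes were from transiently transfected CHO-K1 cells expressing human mPGES-1.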

Another test concerns human A549 cells. The experiment in a line: Inhibition test of PGE2 production using human A549 cells. It counts as cell-based. As to conditions: IL-1β stimulated A549 cells, 24 h, PGE2 by HTRF, read-out: A549 cell inhibition of PGE2 production IC50. The essentials:
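PGE2 (HTRF) and PGF2a (EIA) were quantified in medium after 24 h, 37°C IL-1β stimulation (5 ng/well) of human A549 cells that had received test compound 60 min beforehand (0.1% DMSO, 3% FBS RPMI). IC50 relative to the window between IL-1β-stimulated and unstimulated controls.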

Test [1] concerns Female Hartley guinea pigs. The test can be described thus: Suppression of urinary output in a guinea pig model of water-loaded polyuria. It counts as in vivo. As to conditions: oral, total urinary output up to 3 hours after water load, relative to vehicle group. As for the experimental part:
The water-loaded polyuria model, commonly used as a model for polyuria, was used to evaluate the inhibitory effect of the test compounds on urinary output in the following manner. Female Hartley guinea pigs (Japan SLC Co., Ltd.) were acclimated in a metabolic cage (Natsume Seisakusho Co., Ltd.) in a fasted condition from the evening of one day before the test. On the following day, 20 mL/kg of distilled water was administered orally as a water load, and then the guinea pigs were placed back in the metabolic cage and the total urinary output up to 3 hours after the water load was downloaded into a personal computer via an electronic balance (GX-200, A&D Corporation) and a data collection and analysis system (PowerLab®, ADInstruments), and then analyzed using analyzing software (LabChart®, ADInstruments). Test compounds dissolved in 0.5% methylcellulose solution (vehicle) or vehicle only were administered orally immediately before water loading depending on the kinetics of the compound. Based on the total urinary output at 3 hours after administration of the test compound and vehicle groups, the percentage inhibition of urinary output of the test compound group (%) was calculated relative to the urinary output of the vehicle group.

Structures are written as SMILES.

human mPGES-1, sequence (O14684 whole entry): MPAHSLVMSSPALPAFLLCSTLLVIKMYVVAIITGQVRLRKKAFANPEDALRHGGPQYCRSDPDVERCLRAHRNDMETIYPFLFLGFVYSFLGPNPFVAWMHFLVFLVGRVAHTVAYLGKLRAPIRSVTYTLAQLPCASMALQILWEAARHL

For `Cc1ccc(-n2ncc3c(NC(=O)c4cc(CNC(=O)C(C)(C)C)ccc4Cl)cccc32)nn1` [Example 59, 2-Chloro-5-{[(2,2-dimethylpropanoyl)amino]methyl}-N-[1-(6-methylpyridazin-3-yl)-1H-indazol-4-yl]benzamide], the IC50 was 34.2 nM at human mPGES-1 and 24.4 nM with human A549 cells. Besides, the “Suppression (%) of urinary output” value in test [1] stood at 21.2%.

On to `CC(C)(C)C(=O)NCc1ccc(Cl)c(C(=O)Nc2cccc3c2cnn3-c2ccc(C3CC3)nc2)c1.Cl` [Example 69, 2-Chloro-N-[1-(6-cyclopropylpyridin-3-yl)-1H-indazol-4-yl]-5-{[(2,2-dimethylpropanoyl)amino]methyl}benzamide hydrochloride], for which the values for the IC50 on human mPGES-1 and in the test on human A549 cells were 3.8 nM and 2.1 nM, respectively. Further, the “Suppression (%) of urinary output” value in test [1] is listed as 57.8%.

Turning to `CC(C)(C)C(=O)NCc1ccc(Cl)c(C(=O)Nc2cccc3c2cnn3-c2ccnc(C3CC3)c2)c1.Cl` [Example 70, 2-Chloro-N-[1-(2-cyclopropylpyridin-4-yl)-1H-indazol-4-yl]-5-{[(2,2-dimethylpropanoyl)amino]methyl}benzamide hydrochloride], the values for the IC50 at human mPGES-1 and with human A549 cells were 4.3 nM and 1 nM, respectively. In test [1], the “Suppression (%) of urinary output” value was 25.1%.

With `Cc1ccc(-n2ncc3c(NC(=O)c4cc(CNC(=O)C(C)(C)C)ccc4C(F)(F)F)cccc32)cn1.Cl` [Example 88, 5-{[(2,2-Dimethylpropanoyl)amino]methyl}-N-[1-(6-methylpyridin-3-yl)-1H-indazol-4-yl]-2-(trifluoromethyl)benzamide hydrochloride], the IC50 at human mPGES-1 worked out at 1.5 nM; with human A549 cells, 68.2 nM. For the same compound, the “Suppression (%) of urinary output” value in test [1] turned out to be 34.5%.

As to `CC(C)(CO)C(=O)NCc1ccc(Cl)c(C(=O)Nc2cccc3c2cnn3-c2cccc(OC(F)(F)F)c2)c1` [Example 125, 2-Chloro-5-{[(3-hydroxy-2,2-dimethylpropanoyl)amino]methyl}-N-{1-[3-(trifluoromethoxy)phenyl]-1H-indazol-4-yl}benzamide], the inhibition at 0.01 µM on human mPGES-1 came out at 62%. In the test with human A549 cells, the IC50 came out at 3.5 nM. Further, the “Suppression (%) of urinary output” value in test [1] is on record as 58.0%.

Turning to `Cc1ccc(-n2ncc3c(NC(=O)c4cc(CNC(=O)C(C)(C)CO)ccc4Cl)cccc32)cc1C(F)(F)F` [Example 259, 2-Chloro-5-{[(3-hydroxy-2,2-dimethylpropanoyl)amino]methyl}-N-{1-[4-methyl-3-(trifluoromethyl)phenyl]-1H-indazol-4-yl}benzamide], on human mPGES-1, the inhibition at 0.01 µM was determined as 92% and the inhibition at 0.1 µM worked out at 92%. Moreover, the IC50 in the test on human A549 cells turned out to be 0.5 nM.

Take `Cc1ccc(-n2ncc3c(NC(=O)c4cc(CNS(=O)(=O)C5CC5)ccc4Cl)cccc32)cc1C(F)(F)F` [Example 260, 2-Chloro-5-{[(cyclopropylsulfonyl)amino]methyl}-N-{1-[4-methyl-3-(trifluoromethyl)phenyl]-1H-indazol-4-yl}benzamide]: on human mPGES-1, the inhibition at 0.01 µM was 89% and the inhibition at 0.1 µM turned out to be 101%. Besides, the IC50 in the test with human A549 cells was 1 nM.

With `COc1ccc(-n2ncc3c(NC(=O)c4cc(CNC(=O)CC(C)(C)C)ccc4Cl)cccc32)cc1C(F)(F)F` [Example 261, 2-Chloro-5-{[(3,3-dimethylbutanoyl)amino]methyl}-N-{1-[4-methoxy-3-(trifluoromethyl)phenyl]-1H-indazol-4-yl}benzamide], on human mPGES-1, the inhibition at 0.01 µM amounted to 95% and the inhibition at 0.1 µM is 100%. In the test on human A549 cells, the IC50 came out at 1.4 nM.

Turning to `COc1ccc(-n2ncc3c(NC(=O)c4cc(CNC(=O)C5CCCC5)ccc4Cl)cccc32)cc1C(F)(F)F` [Example 262, 2-Chloro-5-{[(cyclopentylcarbonyl)amino]methyl}-N-{1-[4-methoxy-3-(trifluoromethyl)phenyl]-1H-indazol-4-yl}benzamide], on human mPGES-1, the inhibition at 0.01 µM was 99% and the inhibition at 0.1 µM turned out to be 94%. Besides, the IC50 in the test on human A549 cells came out at 2 nM.

With `COc1ccc(-n2ncc3c(NC(=O)c4cc(CNC(=O)C5(C(F)(F)F)CC5)ccc4Cl)cccc32)cc1C(F)(F)F` [Example 263, 2-Chloro-N-{1-[4-methoxy-3-(trifluoromethyl)phenyl]-1H-indazol-4-yl}-5-[({[1-(trifluoromethyl)cyclopropyl]carbonyl}amino)methyl]benzamide], on human mPGES-1, the inhibition at 0.01 µM came to 89% and the inhibition at 0.1 µM came out at 85%. In addition, the IC50 in the test on human A549 cells stood at 0.3 nM.

Consider `COc1ccc(-n2ncc3c(NC(=O)c4cc(CNC(=O)C5(O)CC5)ccc4Cl)cccc32)cc1C(F)(F)F` [Example 264, 2-Chloro-5-({[(1-hydroxycyclopropyl)carbonyl]amino}methyl)-N-{1-[4-methoxy-3-(trifluoromethyl)phenyl]-1H-indazol-4-yl}benzamide], for which, at human mPGES-1, the inhibition at 0.01 µM is 94% and the inhibition at 0.1 µM came out at 97%. For the same compound, in the test with human A549 cells, the IC50 is 5.1 nM.

`COCC(=O)NCc1ccc(Cl)c(C(=O)Nc2cccc3c2cnn3-c2ccc(OC)c(C(F)(F)F)c2)c1` [Example 265, 2-Chloro-5-{[(methoxyacetyl)amino]methyl}-N-{1-[4-methoxy-3-(trifluoromethyl)phenyl]-1H-indazol-4-yl}benzamide]: at human mPGES-1, the inhibition at 0.01 µM turned out to be 95% and the inhibition at 0.1 µM came to 100%. In the test with human A549 cells, the IC50 was 2.7 nM.

On to `COc1ccc(-n2ncc3c(NC(=O)c4cc(CNC(=O)C5CCCC5)ccc4Cl)cccc32)cn1` [Example 270, 2-Chloro-5-{[(cyclopentylcarbonyl)amino]methyl}-N-[1-(6-methoxypyridin-3-yl)-1H-indazol-4-yl]benzamide], for which, at human mPGES-1, the inhibition at 0.01 µM is 64% and the inhibition at 0.1 µM is 88%. Further, in the test with human A549 cells, the IC50 was determined as 3.5 nM.

For the compound `COc1ccc(-n2ncc3c(NC(=O)c4cc(CNC(=O)C5(C(F)(F)F)CC5)ccc4Cl)cccc32)cn1` [Example 271, 2-Chloro-N-[1-(6-methoxypyridin-3-yl)-1H-indazol-4-yl]-5-[({[1-(trifluoromethyl)cyclopropyl]carbonyl}amino)methyl]benzamide], on human mPGES-1, the inhibition at 0.01 µM turned out to be 50% and the inhibition at 0.1 µM amounted to 90%. Moreover, the IC50 in the test with human A549 cells is 3 nM.

In the case of `COc1ccc(-n2ncc3c(NC(=O)c4cc(CNS(=O)(=O)C5CC5)ccc4Cl)cccc32)cn1` [Example 275, 2-Chloro-5-{[(cyclopropylsulfonyl)amino]methyl}-N-[1-(6-methoxypyridin-3-yl)-1H-indazol-4-yl]benzamide], on human mPGES-1, the inhibition at 0.01 µM came out at 66% and the inhibition at 0.1 µM was determined as 91%. The IC50 in the test with human A549 cells came out at 3.9 nM.

Consider `COc1ccc(-n2ncc3c(NC(=O)c4cc(CNC(=O)C(C)(C)C)ccc4C(F)(F)F)cccc32)cn1` [Example 276, 5-{[(2,2-Dimethylpropanoyl)amino]methyl}-N-[1-(6-methoxypyridin-3-yl)-1H-indazol-4-yl]-2-(trifluoromethyl)benzamide], for which, on human mPGES-1, the inhibition at 0.01 µM stood at 68% and the inhibition at 0.1 µM was 94%. Further, the IC50 in the test on human A549 cells was found to be 3 nM. In addition, the “Suppression (%) of urinary output” value in test [1] was 35.1%.

As for `Cc1cc(-n2ncc3c(NC(=O)c4cc(CNC(=O)C5CCCC5)ccc4Cl)cccc32)cc(C)n1` [Example 278, 2-Chloro-5-{[(cyclopentylcarbonyl)amino]methyl}-N-[1-(2,6-dimethylpyridin-4-yl)-1H-indazol-4-yl]benzamide], on human mPGES-1, the inhibition at 0.01 µM is 72% and the inhibition at 0.1 µM worked out at 90%. Besides, in the test with human A549 cells, the IC50 came to 3.1 nM.

With `Cc1cc(-n2ncc3c(NC(=O)c4cc(CNC(=O)C(C)(C)C)ccc4C(F)(F)F)cccc32)cc(C)n1` [Example 283, 5-{[(2,2-Dimethylpropanoyl)amino]methyl}-N-[1-(2,6-dimethylpyridin-4-yl)-1H-indazol-4-yl]-2-(trifluoromethyl)benzamide], at human mPGES-1, the inhibition at 0.01 µM is 72% and the inhibition at 0.1 µM worked out at 96%. The IC50 in the test with human A549 cells was 1.9 nM.

Consider `CC(C)(C)C(=O)NCc1ccc(Cl)c(C(=O)Nc2cccc3c2cnn3C2CC2)c1` [Example 284, 2-Chloro-5-{[(2,2-dimethylpropanoyl)amino]methyl}-N-(1-cyclopropyl-1H-indazol-4-yl)benzamide], for which the inhibition at 0.01 µM against human mPGES-1 was 79%. Also, the IC50 with human A549 cells worked out at 9.6 nM.

Consider `CC(C)(C)C(=O)NCc1ccc(C(F)(F)F)c(C(=O)Nc2cccc3c2cnn3C2CC2)c1` [Example 285, 5-{[(2,2-Dimethylpropanoyl)amino]methyl}-N-(1-cyclopropyl-1H-indazol-4-yl)-2-(trifluoromethyl)benzamide], for which, at human mPGES-1, the inhibition at 0.01 µM came to 75%. The IC50 with human A549 cells came to 7.7 nM.

The term IC50 denotes the concentration at which inhibition is half-maximal. What is called inhibition is the drop in the measured response relative to a control, in per cent.
